Source: the NIST ThermoML archive (doi:10.1021/je0342724)
± gives the expanded uncertainty stated by the source.

Columns and labels:
[1] = Crystal; DTA
[2] = Molar enthalpy of transition or fusion; settings: Crystal; DSC

| SMILES | Normal melting temperature [1] | Molar enthalpy of transition or fusion [2] |
| --- | --- | --- |
| Brc1cc(Br)c(Br)cc1Br [1,2,4,5-tetrabromobenzene] | 181.4 ± 1.1 °C | 5.83 ± 0.598 kcal/mol |
| Brc1c(Br)c(Br)c(Br)c(Br)c1Br [hexabromobenzene] | 325.6 ± 1.1 °C | 5.88 ± 0.598 kcal/mol |
| Brc1ccc(Br)cc1 [1,4-dibromobenzene] | 84.6 ± 1.1 °C | 4.45 ± 0.454 kcal/mol |
| Brc1ccc(Br)c(Br)c1 [1,2,4-tribromobenzene] | 44 ± 1.1 °C | 4.28 ± 0.43 kcal/mol |
